In patent US8614201B2 (Janssen Pharmaceutica NV, priority 2009, dated 2013):

Target: Human TRPA1 (Homo sapiens, UniProt O75762)
Test: Assay 1: In vitro cellular testing of TRPA1 modulation (CHO-TREx, Fluo-3 calcium fluorescence, AITC agonist)
Type: cell-based
Design: expressed in transfected cells; host or cells: CHO-TREx cells (Invitrogen), vector pcDNA4/TO
Settings: CHO-TREx cells expressing human TRPA1; Fluo-3 fluorescence (FLIPR/Tetra); agonist 15 μM allyl isothiocyanate (AITC); 30 minute antagonist incubation
Summary of the method: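 Tetracycline-induced CHO-TREx cells stably expressing human TRPA1, loaded with 4 μM Fluo-3 AM, preincubated 30 min with compound (serial dilution typically from 10 μM, three-fold steps) in HEPES saline pH 7.4. Fluorescence change over 3 min after 15 μM AITC; IC50 from Hill fit versus no-antagonist and 10 μM ruthenium red controls.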

Chain of Human TRPA1 (O75762 whole entry): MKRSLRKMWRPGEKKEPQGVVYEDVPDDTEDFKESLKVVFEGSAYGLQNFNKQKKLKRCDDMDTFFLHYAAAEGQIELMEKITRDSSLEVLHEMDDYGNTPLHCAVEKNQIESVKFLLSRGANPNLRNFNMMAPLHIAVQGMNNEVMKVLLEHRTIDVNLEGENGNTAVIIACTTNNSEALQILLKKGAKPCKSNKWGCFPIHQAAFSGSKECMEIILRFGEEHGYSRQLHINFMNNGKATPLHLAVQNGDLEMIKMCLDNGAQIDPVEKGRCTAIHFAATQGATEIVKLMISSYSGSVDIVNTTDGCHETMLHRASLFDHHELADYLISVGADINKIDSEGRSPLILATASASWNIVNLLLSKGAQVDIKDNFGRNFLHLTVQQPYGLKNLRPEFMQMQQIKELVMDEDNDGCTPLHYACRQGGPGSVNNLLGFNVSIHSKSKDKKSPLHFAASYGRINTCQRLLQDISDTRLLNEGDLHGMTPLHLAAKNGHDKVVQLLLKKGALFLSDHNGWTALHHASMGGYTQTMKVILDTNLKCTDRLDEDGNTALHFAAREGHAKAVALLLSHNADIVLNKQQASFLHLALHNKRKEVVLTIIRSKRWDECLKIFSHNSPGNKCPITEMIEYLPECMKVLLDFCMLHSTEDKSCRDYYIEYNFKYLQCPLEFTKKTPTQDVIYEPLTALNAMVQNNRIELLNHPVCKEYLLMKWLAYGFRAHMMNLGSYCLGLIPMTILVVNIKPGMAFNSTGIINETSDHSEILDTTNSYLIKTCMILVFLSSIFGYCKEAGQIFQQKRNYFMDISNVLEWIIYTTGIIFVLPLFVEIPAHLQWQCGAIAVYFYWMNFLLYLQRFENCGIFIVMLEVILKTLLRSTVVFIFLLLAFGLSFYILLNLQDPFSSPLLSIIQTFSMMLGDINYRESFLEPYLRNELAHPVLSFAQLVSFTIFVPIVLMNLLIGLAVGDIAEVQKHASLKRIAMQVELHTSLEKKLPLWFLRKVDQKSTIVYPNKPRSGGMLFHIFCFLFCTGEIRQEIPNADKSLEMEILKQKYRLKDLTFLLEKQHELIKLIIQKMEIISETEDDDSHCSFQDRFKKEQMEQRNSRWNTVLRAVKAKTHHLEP

IC50 [nM]	Compound
203	O=C(NCc1cc(-c2ccc(C(F)(F)F)nc2)ncn1)[C@@H]1CCCN1S(=O)(=O)c1ccc(F)cc1 [Example 178, 1-(4-Fluoro-benzenesulfonyl)-pyrrolidine-2S-carboxylic acid [6-(6-trifluoromethyl-pyridin-3-yl)-pyrimidin-4-ylmethyl]-amide]
229	O=C(NCc1cc(-c2ccc(C(F)(F)F)cc2)ncn1)[C@@H]1CC(F)(F)CN1S(=O)(=O)c1ccc(F)cc1 [Example 179, (2S)-4,4-Difluoro-1-(4-fluoro-benzenesulfonyl)-pyrrolidine-2-carboxylic acid [6-(4-trifluoromethyl-phenyl)-pyrimidin-4-ylmethyl]-amide]
228	O=C(NCc1cc(-c2ccc(C(F)(F)F)cc2)ncn1)[C@@H]1CC(F)(F)CN1S(=O)(=O)c1ccc(Cl)s1 [Example 180, (2S)-1-(5-Chloro-thiophene-2-sulfonyl)-4,4-difluoro-pyrrolidine-2-carboxylic acid [6-(4-trifluoromethyl-phenyl)-pyrimidin-4-ylmethyl]-amide]
20	Cc1nc(CNC(=O)[C@@H]2CCCN2S(=O)(=O)c2ccc(F)cc2)cc(-c2ccc(C(F)(F)F)cc2)n1 [Example 183, 1-(4-Fluoro-benzenesulfonyl)-pyrrolidine-2S-carboxylic acid [2-methyl-6-(4-trifluoromethyl-phenyl)-pyrimidin-4-ylmethyl]-amide]
433	O=C(NCc1nccc(-c2ccc(C(F)(F)F)cc2)n1)[C@@H]1CCCN1S(=O)(=O)c1ccc(F)cc1 [Example 185, (2S)-1-(4-Fluoro-benzenesulfonyl)-pyrrolidine-2-carboxylic acid [4-(4-trifluoromethyl-phenyl)-pyrimidin-2-ylmethyl]-amide]
227	O=C(NCc1nccc(-c2ccc(C(F)(F)F)cc2)n1)[C@@H]1CCCN1S(=O)(=O)c1ccc(Cl)s1 [Example 186]
806	O=C(NCc1ccnc(-c2ccc(C(F)(F)F)cc2)n1)[C@@H]1CCCN1S(=O)(=O)c1ccc(F)cc1 [Example 187, (2S)-1-(4-Fluoro-benzenesulfonyl)-pyrrolidine-2-carboxylic acid [2-(4-trifluoromethyl-phenyl)-pyrimidin-4-ylmethyl]-amide]
2	O=C(NCc1cc(-c2ccc(C(F)(F)F)cc2)nc(N2CCC(Cc3ccccc3)CC2)n1)[C@@H]1CCCN1S(=O)(=O)c1ccc(F)cc1 [Example 189, 1-(4-Fluoro-benzenesulfonyl)-pyrrolidine-2S-carboxylic acid [2-(4-benzyl-piperidin-1-yl)-6-(4-trifluoromethyl-phenyl)-pyrimidin-4-ylmethyl]-amide]
85	O=C(NCc1cc(-c2ccc(C(F)(F)F)cc2)nc(NC2CCCC2)n1)[C@@H]1CCCN1S(=O)(=O)c1ccc(F)cc1 [Example 193, 1-(4-Fluoro-benzenesulfonyl)-pyrrolidine-2S-carboxylic acid [2-cyclopentylamino-6-(4-trifluoromethyl-phenyl)-pyrimidin-4-ylmethyl]-amide]

Further lines, the molecule ahead of its results:

Compound	IC50 [nM]
CC(=O)c1ccc(S(=O)(=O)N2CCC[C@H]2C(=O)NCc2cc(-c3ccc(C(F)(F)F)cc3)ncn2)cc1 [Example 162, 1-(4-Acetylbenzenesulfonyl)-pyrrolidine-2S-carboxylic acid [6-(4-trifluoromethylphenyl)-pyrimidin-4-ylmethyl]-amide]	1700
O=C(NCc1cc(-c2ccc(C(F)(F)F)cc2)ncn1)[C@@H]1CCCN1S(=O)(=O)c1ccc([N+](=O)[O-])cc1 [Example 163, 1-(4-Nitrobenzenesulfonyl)-pyrrolidine-2S-carboxylic acid [6-(4-trifluoromethylphenyl)-pyrimidin-4-ylmethyl]-amide]	14
O=C(NCc1cc(-c2ccc(C(F)(F)F)cc2)ncn1)[C@@H]1CCCN1S(=O)(=O)c1cc(Cl)c(Cl)s1 [Example 165, 1-(4,5-Dichlorothiophene-2-sulfonyl)-pyrrolidine-2S-carboxylic acid [6-(4-trifluoromethylphenyl)-pyrimidin-4-ylmethyl]-amide]	11
O=C(NCc1cc(-c2ccc(C(F)(F)F)cc2)ncn1)[C@@H]1CCCN1S(=O)(=O)c1ccc(Cl)s1 [Example 166, 1-(5-Chlorothiophene-2-sulfonyl)-pyrrolidine-2S-carboxylic acid [6-(4-trifluoromethylphenyl)-pyrimidin-4-ylmethyl]-amide]	14
O=C(NCc1cc(-c2ccc(C(F)(F)F)cc2)ncn1)[C@@H]1CCCN1S(=O)(=O)c1ccco1 [Example 167, 1-(Furan-2-sulfonyl)-pyrrolidine-2S-carboxylic acid [6-(4-trifluoromethylphenyl)-pyrimidin-4-ylmethyl]-amide]	63
O=C(NCc1cc(-c2ccc(C(F)(F)F)cc2)ncn1)[C@@H]1CCCN1S(=O)(=O)c1cc(F)cc(F)c1 [Example 169, 1-(3,5-Difluorobenzenesulfonyl)-pyrrolidine-2S-carboxylic acid [6-(4-trifluoromethylphenyl)-pyrimidin-4-ylmethyl]-amide]	51
O=C(NCc1cc(-c2ccc(C(F)(F)F)cc2)ncn1)[C@@H]1CCCN1S(=O)(=O)c1cccs1 [Example 170, 1-(Thiophene-2-sulfonyl)-pyrrolidine-2S-carboxylic acid [6-(4-trifluoromethylphenyl)-pyrimidin-4-ylmethyl]-amide]	20
O=C(NCc1cccc(-c2ccc(Cl)cc2)c1)[C@@H]1CCCN1S(=O)(=O)c1ccc(F)cc1 [Example 171, 1-(4-Fluorobenzenesulfonyl)-pyrrolidine-2S-carboxylic acid (4′-chlorobiphenyl-3-ylmethyl)-amide]	19
O=C(NCc1cc(-c2ccc(C(F)(F)F)cc2)ncn1)[C@@H]1CCCN1S(=O)(=O)c1ccsc1 [Example 172, 1-(Thiophene-3-sulfonyl)-pyrrolidine-2S-carboxylic acid [6-(4-trifluoromethyl-phenyl)-pyrimidin-4-ylmethyl]-amide]	11
O=C(NCc1cc(-c2ccc(C(F)(F)F)cc2)ncn1)[C@@H]1CCCN1S(=O)(=O)c1cc(Cl)sc1Cl [Example 173, 1-(2,5-Dichlorothiophene-3-sulfonyl)-pyrrolidine-2S-carboxylic acid [6-(4-trifluoromethylphenyl)-pyrimidin-4-ylmethyl]-amide]	1150
O=C(NCc1cc(-c2ccc(C(F)(F)F)cc2)ncn1)[C@@H]1CCCN1S(=O)(=O)c1ccc(Cl)nc1 [Example 174, 1-(6-Chloropyridine-3-sulfonyl)-pyrrolidine-2S-carboxylic acid [6-(4-trifluoromethylphenyl)-pyrimidin-4-ylmethyl]-amide]	95
O=C(NCc1cc(-c2ccc(C(F)(F)F)cc2)ncn1)[C@@H]1CCCN1S(=O)(=O)c1ccoc1 [Example 176, 1-(Furan-3-sulfonyl)-pyrrolidine-2S-carboxylic acid [6-(4-trifluoromethylphenyl)-pyrimidin-4-ylmethyl]-amide]	45
O=C(NCc1cc(-c2ccc(OC(F)(F)F)cc2)ncn1)[C@@H]1CCCN1S(=O)(=O)c1ccc(F)cc1 [Example 177, 1-(4-Fluorobenzenesulfonyl)-pyrrolidine-2S-carboxylic acid [6-(4-trifluoromethoxyphenyl)-pyrimidin-4-ylmethyl]-amide]	71
